Patent US11179501B2, “Bone morphogenetic protein pathway activation, compositions for ossification, and methods related thereto” (Emory University, priority 2011, dated 2021)
Structures can show the parent of a compound that is named as a salt. Blank lines part the entries; values can stand above or below the compound they belong to.

Assays:
C2C12 cells [1] = experiment: BMP-Noggin competitive alkaline phosphatase (ALP) assay; assay type: cell-based, Mouse; settings: for Fold increase in Noggin-Inhibition ALP Assay over BMP alone control: BMP-2 90-100 ng/ml plus noggin 100-120 ng/ml, 72 hours; for cell lifting from culture plates: BMP-Noggin competitive ALP assay, low cell number and low yield of protein
Method: (§1) Their activity was evaluated by determining the potentiation of alkaline phosphatase activity in sub-optimal doses of BMP in the presence or absence of exogenously added noggin.
Mouse C2C12 cells and Dulbecco's modified Eagle's medium (DMEM) were purchased from ATCC (Manassas, Va.). The non-heat inactivated fetal bovine serum (FBS) was purchased from HyClone Laboratories, Inc. (Logan, Utah). The C2C12 cells at passages 5 to 10 were subcultured in T-75 cm^2 flasks in DMEM supplemented with 10% FBS at 37° C. in 5% CO2 with humidification. When the flasks reached 80% confluence, the cells were trypsinized and seeded in triplicate.
The C2C12 cells were plated at 200,000 cells/well in 6-well plates and grown overnight in DMEM containing 10% FBS. On day 2, the culture medium was replaced with DMEM containing 2% FBS and the cells were treated with 90-100 ng/ml of BMP-2 (as noted in each experiment), various concentrations of compound, and 100-120 ng/ml of noggin (as noted in each experiment) for 72 hours. The cells were washed with phosphate-buffered saline (PBS) and lysed by addition of lysis buffer (10 mM Tris-HCl pH 8.0, 1 mM MgCl2 and 1.0% Triton X-100). The cell lysates were centrifuged for 5 minutes at 13,000×g. The supernatant was removed and the aliquots were assayed for ALP activity and protein amount. The ALP activity was measured in triplicate using an ALP assay kit (Sigma-Aldrich, St. Louis, Mo.) in microtiter plates. The protein amount was determined with Bio-Rad protein assay reagent (Bio-Rad, Hercules, Calif.) using bovine serum albumin (BSA) as a standard. The ALP activity (nmoles of p-nitrophenol per ml) was normalized to the protein amount (nmoles of p-nitrophenol per μg).

C2C12 cells [2] = experiment: Alkaline phosphatase (ALP) assay: potentiation of BMP-2-induced ALP activity; settings: for Fold increase in BMP-Potentiated ALP activity over BMP control / Fold-increase of BMP-induced ALP (over BMP alone control) / cell lifting from culture plates: C2C12 cells; for Fold increase in BMP-Potentiated ALP activity over BMP control: 50 ng/ml BMP-2, 72 hours; for cell lifting from culture plates: ALP assay
Method: as §1
The BMP-potentiating activities of compounds may be evaluated by monitoring several markers of the osteoblastic phenotype corresponding to various time points during phenotype differentiation of C2C12 cells towards terminally differentiated osteoblasts.
The C2C12 cells at passages 5 to 10 were subcultured in T-75 cm^2 flasks in DMEM supplemented with 10% FBS at 37° C. in 5% CO2 with humidification. When the flasks reached 80% confluence, the cells were trypsinized and seeded in triplicate.
The C2C12 cells were plated at 200,000 cells/well in 6-well plates and grown overnight in DMEM containing 10% FBS. On day 2, the culture medium was replaced with DMEM containing 2% FBS and the cells were treated with various concentrations of compound for 24 hours. On day 3, the culture medium was replaced with DMEM containing 2% FBS and the cells were treated with 50 ng/ml of BMP-2 and various concentrations of compound for 72 hours. The cells were washed with phosphate-buffered saline (PBS) and lysed by addition of lysis buffer (10 mM Tris-HCl pH 8.0, 1 mM MgCl2 and 1.0% Triton X-100). The cell lysates were centrifuged for 5 minutes at 13,000×g. The supernatant was removed and the aliquots were assayed for ALP activity and protein amount. The ALP activity was measured in triplicate using an ALP assay kit (Sigma-Aldrich, St. Louis, Mo.) in microtiter plates. The protein amount was determined with Bio-Rad protein assay reagent (Bio-Rad, Hercules, Calif.) using bovine serum albumin (BSA) as a standard. The ALP activity (nmoles of p-nitrophenol per ml) was normalized to the protein amount (nmoles of p-nitrophenol per μg).

Sprague Dawley rats = experiment: Collagen disc implantation with macrolides in rat ectopic model; assay type: in vivo; set-up: Ave. (Xray score): scale not given here; settings: for Ave. (Xray score) / Results (bone, animals with bone of 4): 100 ul, collagen, no BMP-2, 4 weeks; for De novo bone formation: local, collagen disc, chest implant, absence of BMP-2, 4 weeks
Text: Sprague Dawley rats about 5-6 weeks of age were chest implanted with a collagen disc (diameter of 1.0 cm and height of 2.0 mm; total volume of 150 cubic millimeters) and doses of macrolides in the absence of BMP-2. After 4 weeks the rats were sacrificed and evaluated for bone growth. […] In certain embodiments, the disclosure contemplates local bone formation for fracture repair, segmental bone defects, spine fusion, bone grafting, and regional bone enhancement for osteopenic bones before they fracture (e.g. hip, vertebral body, etc) by deliver locally to induce local bone formation.

SMILES: COc1cc(C)c(/C=C/C(C)=C/C=C/C(C)=C/C(=O)O)c(C)c1C [Acitretin, acitretin]
Fold increase in Noggin-Inhibition ALP Assay over BMP alone control (C2C12 cells [1]): 3 | Fold increase in BMP-Potentiated ALP activity over BMP control (C2C12 cells [2]): 33

SMILES: C[C@H]1[C@H](OC(=O)CCC(=O)O)O[C@@H]2O[C@@]3(C)CC[C@H]4[C@H](C)CC[C@@H]1[C@@]24OO3 [Artesunate, 4-oxo-4-(((3R,5aS,6R,8aS,9R,10R,12R,12aR)-3,6,9-trimethyldecahydro-3H-3,12-epoxy[1,2]dioxepino[4,3-i]isochromen-10-yl)oxy)butanoic acid]
cell lifting from culture plates (C2C12 cells [1]): caused cell lifting from culture plates

SMILES: Nc1nc2ccc(Cl)cc2c2nc(-c3ccco3)nn12 [CGS 15943, 9-chloro-2-(furan-2-yl)[1,2,4]triazolo[1,5-c]quinazolin-5-amine]
cell lifting from culture plates (C2C12 cells [1]): caused cell lifting from culture plates

SMILES: COc1cc(CNC(=O)CCCCC=CC(C)C)ccc1O [Capsaicin, N-(4-hydroxy-3-methoxybenzyl)-8-methylnon-6-enamide]
cell lifting from culture plates (C2C12 cells [1]): caused cell lifting from culture plates

SMILES: O=C(O)CCCc1ccc(N(CCCl)CCCl)cc1 [Chlorambucil, chlorambucil]
Fold increase in Noggin-Inhibition ALP Assay over BMP alone control (C2C12 cells [1]): 4 | Fold increase in BMP-Potentiated ALP activity over BMP control (C2C12 cells [2]): 3

SMILES: Clc1ccccc1C(c1ccccc1)(c1ccccc1)n1ccnc1 [Clotrimazole, 1-[(2-chlorophenyl)diphenylmethyl]-1H-imidazole]
Fold increase in Noggin-Inhibition ALP Assay over BMP alone control (C2C12 cells [1]): 4 | Fold increase in BMP-Potentiated ALP activity over BMP control (C2C12 cells [2]): 7 | BMP-induced ALP activity (C2C12 cells [2]; nanomolar concentrations, FIG. 5): dose dependent increase

SMILES: CO[C@H]1C[C@@H]2CC[C@@H](C)[C@@](O)(O2)C(=O)C(=O)N2CCCC[C@H]2C(=O)O[C@H]([C@H](C)C[C@@H]2CC[C@@H](OCCO)[C@H](OC)C2)CC(=O)[C@H](C)/C=C(\C)[C@@H](O)[C@@H](OC)C(=O)[C@H](C)C[C@H](C)/C=C/C=C/C=C/1C [Everolimus, everolimus]
Ave. (Xray score) (Sprague Dawley rats; dose 10 mM): 0 | Results (bone, animals with bone of 4) (Sprague Dawley rats; dose 10 mM): No bone (0 of 4) | Ave. (Xray score) (Sprague Dawley rats; dose 15 mM): 2.5 | Results (bone, animals with bone of 4) (Sprague Dawley rats; dose 15 mM): Bone (3 of 4) | Ave. (Xray score) (Sprague Dawley rats; dose 20 mM): 3.75 | Results (bone, animals with bone of 4) (Sprague Dawley rats; dose 20 mM): Bone (4 of 4) | Ave. (Xray score) (Sprague Dawley rats; dose 25 mM): 4.75 | Results (bone, animals with bone of 4) (Sprague Dawley rats; dose 25 mM): Bone (4 of 4) | Ave. (Xray score) (Sprague Dawley rats; dose 30 mM): 3.75 | Results (bone, animals with bone of 4) (Sprague Dawley rats; dose 30 mM): Bone (3 of 4) | Ave. (Xray score) (Sprague Dawley rats; dose 35 mM): 4.75 | Results (bone, animals with bone of 4) (Sprague Dawley rats; dose 35 mM): Bone (4 of 4) | De novo bone formation (Sprague Dawley rats): De novo bone formation is demonstrated locally

SMILES: CCC(=O)O[C@]1(C(=O)SCF)[C@H](C)C[C@H]2[C@@H]3C[C@H](F)C4=CC(=O)C=C[C@]4(C)[C@@]3(F)[C@@H](O)C[C@@]21C [Fluticasone Propionate, 6,9-difluoro-11-hydroxy-16-methyl-3-oxo-17-(1-oxopropoxy)-androsta-1,4-diene-17-carbothioic acid S-(fluoromethyl) ester]
Fold increase in Noggin-Inhibition ALP Assay over BMP alone control (C2C12 cells [1]): 3 | Fold increase in BMP-Potentiated ALP activity over BMP control (C2C12 cells [2]): 6

SMILES: CC(=O)N1CCN(c2ccc(OC[C@H]3CO[C@](Cn4ccnc4)(c4ccc(Cl)cc4Cl)O3)cc2)CC1 [Ketoconazole, 1-(4-(4-(((2R,4S)-2-((1H-imidazol-1-yl)methyl)-2-(2,4-dichlorophenyl)-1,3-dioxolan-4-yl)methoxy)phenyl)piperazin-1-yl)ethanone]
cell lifting from culture plates (C2C12 cells [1]): caused cell lifting from culture plates

SMILES: CC[C@H](C)C(=O)O[C@H]1C[C@@H](C)C=C2C=C[C@H](C)[C@H](CC[C@@H]3C[C@@H](O)CC(=O)O3)[C@H]21 [Lovastatin, lovastatin]
cell lifting from culture plates (C2C12 cells [1]): caused cell lifting from culture plates

SMILES: COC1CC2CCC(C)C(O)(O2)C(=O)C(=O)N2CCCCC2C(=O)OC(C(C)CC2CCC(O)C(OC)C2)CC(=O)C(C)C=C(C)C(O)C(OC)C(=O)C(C)CC(C)C=CC=CC=C1C (stereo not drawn) [Sirolimus, 9,10,12,13,14,21,22,23,24,25,26,27,32,33,34,34a-Hexadecahydro-9,27-dihydroxy-3-[2-[4-hydroxy-3-methoxycyclohexyl]-1-methylethyl]-10,21-dimethoxy-6,8,12,14,20,26-hexamethyl-23,27-epoxy-3H-pyrido[2,1-c][1,4]oxaazacyclohentriacontine-1,5,11,28,29(4H,6H,31H)-pentone]
Ave. (Xray score) (Sprague Dawley rats; dose 10 mM): 0.25 | Results (bone, animals with bone of 4) (Sprague Dawley rats; dose 10 mM): Bone (1 of 4) | Ave. (Xray score) (Sprague Dawley rats; dose 15 mM): 0.5 | Results (bone, animals with bone of 4) (Sprague Dawley rats; dose 15 mM): Bone (1 of 4) | Ave. (Xray score) (Sprague Dawley rats; dose 20 mM): 0.75 | Results (bone, animals with bone of 4) (Sprague Dawley rats; dose 20 mM): Bone (1 of 4) | Ave. (Xray score) (Sprague Dawley rats; dose 25 mM): 2.75 | Results (bone, animals with bone of 4) (Sprague Dawley rats; dose 25 mM): Bone (3 of 4) | Ave. (Xray score) (Sprague Dawley rats; dose 30 mM): 3.5 | Results (bone, animals with bone of 4) (Sprague Dawley rats; dose 30 mM): Bone (3 of 4) | Ave. (Xray score) (Sprague Dawley rats; dose 35 mM): 4.25 | Results (bone, animals with bone of 4) (Sprague Dawley rats; dose 35 mM): Bone (4 of 4) | De novo bone formation (Sprague Dawley rats): De novo bone formation is demonstrated locally

SMILES: CC[C@]1(O)C[C@H]2CN(CCc3c([nH]c4ccccc34)[C@@](C(=O)OC)(c3cc4c(cc3OC)N(C=O)[C@H]3[C@@](O)(C(=O)OC)[C@H](OC(C)=O)[C@]5(CC)C=CCN6CC[C@]43[C@@H]65)C2)C1 [Vincristine]
Fold-increase of BMP-induced ALP (over BMP alone control) (C2C12 cells [2]): 5.0

SMILES: CCC1=C[C@@H]2CN(C1)Cc1c([nH]c3ccccc13)[C@@](C(=O)OC)(c1cc3c(cc1OC)N(C)[C@H]1[C@@](O)(C(=O)OC)[C@H](OC(C)=O)[C@]4(CC)C=CCN5CC[C@]31[C@@H]54)C2 [Vinorelbine tartrate]
cell lifting from culture plates (C2C12 cells [2]): caused cell lifting from culture plates | Fold-increase of BMP-induced ALP (over BMP alone control) (C2C12 cells [2]): 4.0

SMILES: C=C1/C(=C\C=C2/CCC[C@]3(C)[C@@H]([C@H](C)CCCC(C)(C)O)CC[C@@H]23)C[C@@H](O)C[C@@H]1O [calcitriol]
cell lifting from culture plates (C2C12 cells [2]): caused cell lifting from culture plates

The remaining lines, values ahead:

cell lifting from culture plates (C2C12 cells [2]): caused cell lifting from culture plates
SMILES: CCCCCCNC(=O)n1cc(F)c(=O)[nH]c1=O [carmofur, 5-fluoro-N-hexyl-2,4-dioxo-3,4-dihydropyrimidine-1(2H)-carboxamide]

cell lifting from culture plates (C2C12 cells [2]): caused cell lifting from culture plates
SMILES: CCN(CC)CCOc1ccc(C(=C(Cl)c2ccccc2)c2ccccc2)cc1 [clomid]

cell lifting from culture plates (C2C12 cells [1]): caused cell lifting from culture plates
SMILES: Nc1ccn([C@@H]2O[C@H](CO)[C@@H](O)[C@@H]2O)c(=O)n1 [cytarabine]

cell lifting from culture plates (C2C12 cells [1]): caused cell lifting from culture plates
SMILES: CCOC(=O)C1=C(C)NC(C)=C(C(=O)OC)C1c1cccc(Cl)c1Cl (stereo not drawn) [felodipine]

cell lifting from culture plates (C2C12 cells [2]): caused cell lifting from culture plates
SMILES: COC(=O)Nc1nc2cc(C(=O)c3ccc(F)cc3)ccc2[nH]1 [flubendazole]

cell lifting from culture plates (C2C12 cells [2]): caused cell lifting from culture plates
SMILES: CCC(C)n1ncn(-c2ccc(N3CCN(c4ccc(OCC5COC(Cn6cncn6)(c6ccc(Cl)cc6Cl)O5)cc4)CC3)cc2)c1=O (stereo not drawn) [itraconazole, 4-(4-(4-(4((2((1H-1,2,4-triazol-1-yl)methyl)-2-(2,4-dichlorophenyl)-1,3-dioxolan-4-yl)methoxy)phenyl)piperazin-1-yl)phenyl)-1-(sec-butyl)-1H-1,2,4-triazol-5(4H)-one]

cell lifting from culture plates (C2C12 cells [1]): caused cell lifting from culture plates
SMILES: Clc1ccc(CON=C(Cn2ccnc2)c2ccc(Cl)cc2Cl)c(Cl)c1 [oxiconazole nitrate, 1-(2,4-dichlorophenyl)-2-(1H-imidazol-1-yl)ethanone O-(2,4-dichlorobenzyl) oxime]
